Columns and labels:
T-tropic HIV = conditions: patients dual tropic or with only the T-tropic form of the virus; cited from earlier work
human CXCR4 = target: T1, human CXCR4 (Homo sapiens, UniProt P61073); assay: Functional FLIPR assay (block of SDF-1 alpha induced [Ca2+]i change); type: cell-based; conditions: HEK-293 cells with human CXCR4 and Gqi5 BacMam; antagonism of SDF-1 alpha; read-out: Functional assay (pIC50) (converted)
T1 construct: expressed in transfected cells; host or cells: HEK-293 cells (stably expressing human macrophage scavenger receptor class A type 1), transduced with human CXCR4 BacMam and Gqi5 BacMam baculoviruses
Description: Human embryonic kidney (HEK-293) cells were maintained and harvested as described above. Cells were plated in 96-well, black clear bottom, poly-lysine coated plates at a concentration of 40,000 cells per well in a final volume of 100 ul containing human CXCR4 BacMam (MOI=25) and Gqi5 BacMam (MOI=12.5). The cells were incubated at 37° C., 5% CO2, 95% humidity for 24 h to allow for protein expression.
After the required incubation time the cells were washed once with 50 ul of fresh serum-free DMEM/F12 media containing probenicid. 50 ul of dye solution was then added to the cells (Calcium Plus Assay Kit Dye; Molecular Devices) was dissolved in 200 ml of the above probenicid/BSA containing media and incubated for 1 h. Cell plates were transferred to a Fluorometric Imaging Plate Reader (FLIPR). Upon addition the effect of the compounds on the change in [Ca^2+]i was examined to determine if the compounds were agonists or antagonists (ability to block SDF-1 alpha activity) at the CXCR4 receptor. IC50 values are determined and pKb values are calculated using the Leff and Dougall equation: KB=IC50/((2+([agonist]/EC50ˆb)ˆ1/b−1) Where IC50 is that defined by the antagonist concentration-response curve [agonist] is the EC80 concentration of agonist used EC50 is that defined by the agonist concentration-response curve b is the slope of the agonist concentration-response curve.

[1] = Compound cytotoxicity in the absence of virus (CellTiter-Glo); type: cell-based; conditions: human; HOS cells, no virus; read-out: Cytotox (pIC50) (converted)
Description: (§1) Compounds were profiled against two HIV-1 viruses, the M-tropic (CCR5 utilizing) Ba-L strain and the T-tropic (CXCR4 utilizing) IIIB strain. Both viruses were propagated in human peripheral blood lymphocytes. Compounds were tested for there ability to block infection of the HOS cell line (expressing hCXCR4/hCCR5/hCD4/pHIV-LTR-luciferase) by either HIV-1 Ba-L or HIV-1 IIIB. Compound cytotoxicity was also examined in the absence of virus addition.
(§2) HOS cells (expressing hCXCR4/hCCR5/hCD4/pHIV-LTR-luciferase) were harvested and diluted in Dulbeccos modified Eagles media supplemented with 2% FCS and non-essential amino acid to a concentration of 60,000 cells/ml. The cells were plated into 96-well plates (100 ul per well) and the plates were placed in a tissue culture incubator (37° C.; 5% CO2/95% air) for a period of 24 h.
(§3) Subsequently, 50 ul of the desired drug solution (4 times the final concentration) was added to each well and the plates were returned to the tissue culture incubator (37° C.; 5% CO2/95% air) for 1 h. Following this incubation 50 ul of diluted virus was added to each well (approximately 2 million RLU per well of virus). The plates were returned to the tissue culture incubator (37° C.; 5% CO2/95% air) and were incubated for a further 96 h.
(§4) Following this incubation the endpoint for the virally infected cultures was quantified following addition of Steady-Glo Luciferase assay system reagent (Promega, Madison, Wis.). Cell viability or non-infected cultures was measured using a CellTiter-Glo luminescent cell viability assay system (Promega, Madison, Wis.). All luminescent readouts are performed on a Topcount luminescence detector (Packard, Meridien, Conn.).

HIV-1 IIIB = assay: HOS HIV-1 infectivity assay, IIIB strain; type: cell-based; conditions: Human immunodeficiency virus 1; HOS cells, HIV-1 IIIB (T-tropic, CXCR4 utilizing), 96 h; read-out: HOS (3B)
Description: HOS HIV-1 Infectivity Assay
as §1
HOS HIV-1 Infectivity Assay Format
as §2, §3, §4

HIV = assay: HOS HIV infectivity assay (Table 2, strain not given); type: cell-based; conditions: Human immunodeficiency virus 1, read-out: Activity Level
Outline: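 HOS cells expressing hCXCR4/hCCR5/hCD4 and an HIV-LTR-luciferase reporter were preincubated with compound for 1 h in DMEM/2% FCS. They were then infected with HIV-1 Ba-L or IIIB (about 2 million RLU/well) for 96 h at 37° C. Infection was read by luciferase luminescence, and viability in uninfected cultures by CellTiter-Glo.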

[2] = test system: HOS (hCXCR4/hCCR5/hCD4/pHIV-LTR-luciferase) cells and HEK-293 cells expressing HIV-1 gp160 (HXB2 strain); assay: Cell/cell fusion assay (luciferase); type: cell-based; conditions: Homo sapiens, HEK293; 24 h, luciferase readout; read-out: Fusion assay (pIC50) (converted)
From the text: The complete coding sequences of HIV-1 tat (GenBank Accession No. X07861) and rev (GenBank Accession No. M34378) were cloned into pcDNA3.1 expression vectors containing G418 and hygromycin resistance genes, respectively. The complete coding sequence of the HIV-1 (HXB2 strain) gp160 envelope gene (nucleotide bases 6225-8795 of GenBank Accession No. K03455) was cloned into plasmid pCRII-TOPO. The three HIV genes were additionally inserted into the baculovirus shuttle vector, pFastBacMam1, under the transcriptional control of the CMV promoter. A construction of the pHIV-I LTR containing mutated NFkB sequences linked to the luciferase reporter gene was prepared by digesting pcDNA3.1, containing the G418 resistance gene, with Nru I and Bam HI to remove the CMV promoter. LTR-luc was then cloned into the Nru I/Bam HI sites of the plasmid vector. Plasmid preparations were performed after the plasmids were amplified in Escherichia coli strain DH5-alpha. The fidelity of the inserted sequences was confirmed by double-strand nucleotide sequencing using an ABI Prism Model 377 automated sequencer.
BacMam Baculovirus Generation
Recombinant BacMam baculoviruses were constructed from pFastBacMam shuttle plasmids by using the bacterial cell-based Bac-to-Bac system. Viruses were propagated in Sf9 (Spodoptera frugiperda) cells cultured in Hink's TNM-FH Insect media supplemented with 10% (v/v) fetal bovine serum and 0.1% (v/v) pluronic F-68 according to established protocols.
Human osteosarcoma (HOS) cells that naturally express human CXCR4 were transfected with human CCR5, human CD4 and the pHIV-LTR-luciferase plasmid using FuGENE 6 transfection reagent. Single cells were isolated and grown under selection condition in order to generate a stable HOS (hCXCR4/hCCR5/hCD4/pHIV-LTR-luciferase) clonal cell line. The cells were maintained in Dulbeccos modified Eagles media supplemented with 10% fetal calf serum (FCS), G418 (400 ug/ml), puromycin (1 ug/ml), mycophenolic acid (40 ug/ml), xanthine (250 ug/ml) and hypoxanthine (13.5 ug/ml) to maintain a selection pressure for cells expressing the LTR-luciferase, hCCR5 and hCD4, respectively. Human embryonic kidney (HEK-293) cells stably transfected to express the human macrophage scavenging receptor (Class A, type 1; GenBank Accession No. D90187), were maintained in DMEM/F-12 media (1:1) supplemented with 10% FCS and 1.5 ug/ml puromycin. The expression of this receptor by the HEK-293 cells enhances their ability to stick to tissue culture treated plasticware.
Transduction of HEK-293 cells
HEK-293 cells were harvested using enzyme-free cell dissociation buffer. The cells were resuspended in DMEM/F-12 media supplemented with 10% FCS and 1.5 ug/ml and counted. Tranductions were performed by direct addition of BacMam baculovirus containing insect cell media to cells. The cells were simultaneously transduced with BacMam baculovirus expressing HIV-1 tat, HIV-1 rev and HIV-1 gp160 (from the HXB2 HIV strain). Routinely an MOI of 10 of each virus was added to the media containing the cells. 2 mM butyric acid was also added to the cells at this stage to increase protein expression in transduced cells. The cells were subsequently mixed and seeded into a flask at 30 million cells per T225. The cells were incubated at 37° C., 5% CO2, 95% humidity for 24 h to allow for protein expression.
Cell/Cell Fusion Assay Format
HEK and HOS cells were harvested in DMEM/F-12 media containing 2% FCS and DMEM media containing 2% FCS, respectively, with no selection agents added. Compounds were plated as 1 ul spots in 100% DMSO on a 96-well CulturPlate plates. HOS cells (50 ul) were added first to the wells, followed immediately by the HEK cells (50 ul). The final concentration of each cell type was 20,000 cells per well. Following these additions, the cells were returned to a tissue culture incubator (37° C.; 5% CO2/95% air) for an additional 24 h.
Measurement of Luciferase Production […]

T1 sequence (P61073 whole entry): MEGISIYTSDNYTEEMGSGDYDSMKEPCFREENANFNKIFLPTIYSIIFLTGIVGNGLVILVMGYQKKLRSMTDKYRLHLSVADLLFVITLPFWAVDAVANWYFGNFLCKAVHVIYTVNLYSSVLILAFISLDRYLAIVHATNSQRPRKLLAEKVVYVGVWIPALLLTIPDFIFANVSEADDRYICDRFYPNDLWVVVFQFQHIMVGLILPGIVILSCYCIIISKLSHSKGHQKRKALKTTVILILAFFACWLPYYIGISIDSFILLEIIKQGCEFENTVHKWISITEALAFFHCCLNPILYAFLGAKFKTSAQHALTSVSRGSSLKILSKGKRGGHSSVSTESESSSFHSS

SMILES	T-tropic HIV viral load (T-tropic HIV)	IC50 (human CXCR4)	IC50 at 96 h [1]	IC50 (HIV-1 IIIB)	IC50 (HIV)	IC50 [2]
c1cc(CN2CCCNCCNCCCNCC2)ccc1CN1CCCNCCNCCCNCC1 [AMD-3100]	significantly reduce T-tropic HIV viral load	–	–	–	–	–
CC(C)N1CCN(c2cccc3nc(CN(CC(F)(F)F)C4CCCc5cccnc54)cn23)CC1 (stereo not shown) [Example 17, N-({5-[4-(1-Methylethyl)-1-piperazinyl]imidazo[1,2-a]pyridin-2-yl}methyl)-N-(2,2,2-trifluoroethyl)-5,6,7,8-tetrahydro-8-quinolinamine]	–	8.91 nM	> 100000 nM	300 nM	100 to 500 nM	2140 nM
CN(Cc1cn2c(-c3ccncc3)cccc2n1)C1CCCc2cccnc21 (stereo not shown) [Example 19, N-Methyl-N-{[5-(4-pyridinyl)imidazo[1,2-a]pyridin-2-yl]methyl}-5,6,7,8-tetrahydro-8-quinolinamine]	–	20.4 nM	> 100000 nM	280 nM	100 to 500 nM	3160 nM
CN1CCN(c2cccc3nc(CN(C)C4CCCc5cccnc54)cn23)CC1 (stereo not shown) [Example 6, N-Methyl-N-{[5-(4-methyl-1-piperazinyl)imidazo[1,2-a]pyridin-2-yl]methyl}-5,6,7,8-tetrahydro-8-quinolinamine]	–	7.94 nM	> 100000 nM	6.3 nM	< 100 nM	3.31 nM

From US20070232615A1, “Chemical Compounds” (priority 2004, published 2007)
